Patent US12285459B2, “Saposin-A derived peptides and uses thereof” (CHILDREN'S MEDICAL CENTER CORPORATION, priority 2011, dated 2025)
“And” between values parts separate entries of the source, which are not always exact repeats. Equal entries are not always repeated. Non-standard residues stand in square brackets, D forms with d. Residues, ends and D or L forms follow the SMILES beside them. No end group written: not given here. PEG2000 = polyethylene glycol 2000 attached at the N-terminus

Key:
[1] = Peptide stability in human plasma, LC/MS; format: in vitro ADME; conditions: for stability in human plasma / Concentration: 800 ng/mL, 37° C.; for stability in human plasma: 1 h; for Concentration / Percent of Nominal: human plasma; for Percent of Nominal: nominal 800 ng/mL
Description: (§1) human plasma (Lot #BCE012312PM1, K3 EDTA) was obtained from BioChemed Services (Winchester, VA) and was stored at −80° C. Young adult male Swiss-Webster mice were obtained from Taconic Farms, and were anesthetized with carbon dioxide, and exsanguinated by cardiac puncture. Blood was collected in to tubes containing K2 EDTA and cooled in ice. Plasma was prepared by centrifugation for 10 min at 3000 g and 4° C. Mouse plasma and blood was used on the day of harvest.
(§2) Quenched matrix (human and mouse plasma) samples were prepared from one volume of plasma precipitated with three volumes of 9:1 acetonitrile:water at 4° C. and centrifuged for 10 min at 3000 g and 4° C., and the supernatant was used to prepare standard curve samples. A stock solution of 20 mg/mL Ac-DWLP-amide (SEQ ID NO: 133, Ac=acetyl group, amide=amide group) and 20 mg/mL Ac-dWlP-amide (SEQ ID NO: 132, DWLP with D-amino acids D and L indicated by lower case) was prepared in distilled water. Each peptide stock (20 mg/mL) was used to prepare a dilution in phosphate buffered saline (PBS) at 1 mg/mL and those samples were further diluted in PBS to prepare 100 and 50 μg/mL solutions. The 100 and 50 μg/mL solutions were added to the quenched matrix supernatant at concentrations equivalent to 0, 300, 1000, 3000, and 10000 ng/mL pre-quench plasma concentrations to prepare standard curve samples. Triplicate aliquots (100 μL) of each standard curve sample were diluted in 100 μL water prior to analysis by LC/MS.
(§3) The two peptides were formulated in PBS (40 μg/mL), and incubated with human and mouse plasma at 37° C. in polypropylene tubes at a concentration of 800 ng/mL in duplicate. Incubation aliquots (100 μL) were removed at 0, 15, 30, and 60 min and immediately quenched by the addition of 300 μL 9:1 acetonitrile:water, vortexed and centrifuged for 10 min at 3000 g and 4° C. Then 100 μL of each supernatant was diluted with 100 μL PBS prior to analysis by LC/MS.
(§4) Processed standard curve and incubation samples were analyzed using the method described in Table 1. The concentration of peptide in plasma was determined by extrapolation from the standard curve.

[2] = Peptide stability in mouse plasma, LC/MS; format: in vitro ADME, Swiss-Webster mice; conditions: for Concentration: 800 ng/mL, 37° C.; for Percent of Nominal: nominal 800 ng/mL
Description: as §1, §2, §3, §4

[3] = Peptide in plasma prepared from spiked mouse blood (partition into red blood cells), LC/MS; format: in vitro ADME, Swiss-Webster mice; conditions: for Concentration in Mouse Plasma Prepared From Mouse Blood Incubated with Each Peptide: 800 ng/mL in chilled mouse blood, plasma prepared after five minutes; for partition between plasma fraction and red blood cells: mouse blood, 800 ng/mL
Description: as §1
The two peptides were formulated as for plasma and introduced into mouse blood chilled in an ice bath at a concentration of 800 ng/mL in duplicate. Five minutes after adding to blood, plasma was prepared and duplicate aliquots were extracted (as above) and analyzed by LC/MS.
as §4

[4] = mouse, in vivo; cited from earlier work
[5] = test system: primary ovarian cancer cells; assay: Intraperitoneal metastatic ovarian cancer model, bioluminescence; format: in vivo, CB-17 SCID mice; conditions: 2 mg/kg QOD from day 17
Description: For metastatic ovarian cancer cell injections, 5×10^6 viable primary ovarian cancer cells were injected into CB-17 SCID mice intraperitoneally in a volume of 0.1 ml. Tumor growth was monitored by live animal bioluminescence imaging (Xenogen) once per week. For in vivo determination of the metastatic burden, mice were anaesthetized and injected intraperitoneally with 75 mg/kg of D-luciferin (100 uL of 30 mg/mL in PBS). Metastatic growth was monitored over time using bioluminescence imaging performed with mice in a supine position 5 min after D-luciferin injection with a Xenogen IVIS system coupled to Living Image acquisition and analysis software (Xenogen). For BLI plots, photon flux was calculated for each mouse by using the same circular region of interest encompassing the abdomen of the mouse.
To determine whether DWLPK (SEQ ID NO: 4) could inhibit or regress existing ovarian metastases 5×10^6 primary ovarian cancer cells were injected intraperitoneally into SCID mice. After 17 days treatment was initiated with DWLPK (SEQ ID NO: 4) at a dose of 40 mg/kg QD, cisplatin at a dose of 2 mg/kg QOD, a combination of DWLPK (SEQ ID NO: 4) and cisplatin at the same doses, or PBS (control). It was observed that DWLPK (SEQ ID NO: 4) treatment completely regressed the metastases in 11/12 after 30 days and the regressed the metastases in the remaining mice by 99% (FIG. 20).

Tsp-1 expression = conditions: previously shown; cited from earlier work
[6] = test system: Tsp-1 and p53 expression in lungs; assay: Tumor-free mice given PC3M-LN4 conditioned media plus peptide; Tsp-1/p53 in tissue by western blot; format: in vivo, C57Bl6 mice; conditions: PC3M-LN4 CM plus 30 mg/kg pegylated peptide daily, 9 days; compared with PC3 conditioned media
Description: For tumor-free analysis C57Bl6 mice were treated with 200 uL of PC3M-LN4 media alone or in combination with peptides described above at dose of 30 mg/kg/day for 5 days. After treatment the animals were sacrificed and the lungs were harvested, lysed and analyzed for Tsp-1 and p53 protein levels as described previously (Kang et al).
It was sought to determine whether there was a smaller domain within saposin A that contained the p53/Tsp-1 stimulating activity. […] C57Bl6 mice (5-6 wks old) were injected daily with 300 uL of serum free DMEM, conditioned media (CM) from non-metastatic PC3 cells, CM from metastatic PC3M-LN4 cells and PC3M-LN4 CM plus 30 mg/kg of the pegylated 6 amino acid polypeptide (PEG2000-CDWLPK (SEQ ID NO: 46)) or 30 mg/kg of the pegylated 18 amino acid polypeptide (PEG2000-[…] (SEQ ID NO: 47)). After 9 days the mice were euthanized and the lungs and livers harvested and either fixed in formalin or lysed for Western blot analysis.
Finally, the effect of substituting D-amino acids at different residues of the 4-amino acid peptide was analyzed. By Western blot analysis it was observed that substituting the first and third or second and fourth residues, in combination, had no effect on the Tsp-1 stimulating activity in vitro. These peptides were then tested in the tumor-free animal model described above. The normal 4-amino acid peptide and the D-amino acid substituted peptides were injected in combination with conditioned media from PC3M-LN4 cells in adult C57Bl6 mice for 4 days at a dose of 10 or 30 mg/kg/day via i.p. injection. Mice were sacrificed 24 hours after the treatment on day 4. The lungs of these mice were harvested and analyzed the Tsp-1 expression by Western blot analysis. […]
Methods: 18 C57Bl6 mice were injected with Ac-dWlP-amide (SEQ ID NO: 132) at a dose of 30 mg/kg in a volume of 100 μL via intraperitoneal (i.p) injections in serum starved conditioned media from PC3M-LN4 prostate cancer cells. […] The relative intensity of the Tsp-1 (normalized to β-Actin) bands were determined using a Bio-Rad Chemi-Doc XRS system.

For CC(=O)N[C@@H](CC(=O)O)C(=O)N[C@@H](Cc1c[nH]c2ccccc12)C(=O)N[C@@H](CC(C)C)C(=O)N1CCC[C@H]1C(N)=O [Ac-DWLP-amide] (Ac-DWLP-NH2), the “stability in human plasma” value [1] was “good stability”, the Concentration ([1]; 0 min) was 649 ng/mL and 784 ng/mL and the “Percent of Nominal” value ([1]; 0 min) was 81.1% and 98.0%. The Concentration ([1]; 15 min) was 760 ng/mL and 817 ng/mL, the “Percent of Nominal” value ([1]; 15 min) was 95.0% and 102.1% and the Concentration ([1]; 30 min) was 538 ng/mL and 607 ng/mL. For the same molecule, the “Percent of Nominal” value ([1]; 30 min) was 67.3% and 75.9%, the Concentration ([1]; 60 min) was 634 ng/mL and 616 ng/mL and the “Percent of Nominal” value ([1]; 60 min) was 79.3% and 77.0%. The Concentration ([2]; 0 min) was 869 ng/mL and 955 ng/mL, the “Percent of Nominal” value ([2]; 0 min) was 108.6% and 119.4% and the Concentration ([2]; 15 min) was 669 ng/mL and 605 ng/mL. The “Percent of Nominal” value ([2]; 15 min) was 83.6% and 75.6%, the Concentration ([2]; 30 min) was 428 ng/mL and 400 ng/mL and the “Percent of Nominal” value ([2]; 30 min) was 53.5% and 50.0%. The Concentration ([2]; 60 min) was 398 ng/mL and 463 ng/mL, the “Percent of Nominal” value ([2]; 60 min) was 49.8% and 57.9% and the “Concentration in Mouse Plasma Prepared From Mouse Blood Incubated with Each Peptide” value [3] was 1580 ng/mL and 1510 ng/mL and 1530 ng/mL and 1610 ng/mL. The “partition between plasma fraction and red blood cells” value [3] was “remain primarily in the plasma fraction and do not partition into red blood cells”.

With CC(=O)N[C@H](CC(=O)O)C(=O)N[C@@H](Cc1c[nH]c2ccccc12)C(=O)N[C@H](CC(C)C)C(=O)N1CCC[C@H]1C(N)=O [Ac-dWlP-amide] (Ac-[dD]W[dL]P-NH2) the “stability in human plasma” value [1] was “stable”, the Concentration ([1]; 0 min) was 1050 ng/mL and 779 ng/mL and the “Percent of Nominal” value ([1]; 0 min) was 131.3% and 97.4%. The Concentration ([1]; 15 min) was 941 ng/mL and 875 ng/mL, the “Percent of Nominal” value ([1]; 15 min) was 117.6% and 109.4% and the Concentration ([1]; 30 min) was 863 ng/mL and 818 ng/mL. The “Percent of Nominal” value ([1]; 30 min) was 107.9% and 102.3%, the Concentration ([1]; 60 min) was 1100 ng/mL and 901 ng/mL and the “Percent of Nominal” value ([1]; 60 min) was 137.5% and 112.6%. For the same molecule, the Concentration ([2]; 0 min) was 858 ng/mL and 859 ng/mL, the “Percent of Nominal” value ([2]; 0 min) was 107.3% and 107.4% and the Concentration ([2]; 15 min) was 520 ng/mL and 462 ng/mL. The “Percent of Nominal” value ([2]; 15 min) was 65.0% and 57.8%, the Concentration ([2]; 30 min) was 541 ng/mL and 496 ng/mL and the “Percent of Nominal” value ([2]; 30 min) was 67.6% and 62.0%. For the same molecule, the Concentration ([2]; 60 min) was 446 ng/mL and 469 ng/mL, the “Percent of Nominal” value ([2]; 60 min) was 55.8% and 58.6% and the “Concentration in Mouse Plasma Prepared From Mouse Blood Incubated with Each Peptide” value [3] was 1420 ng/mL and 1380 ng/mL and 1060 ng/mL and 1010 ng/mL. For the same molecule, the “partition between plasma fraction and red blood cells” value [3] was “remain primarily in the plasma fraction and do not partition into red blood cells”.

For CO[C@@H]1[C@H](OC(=O)NC(=O)CCl)CC[C@]2(CO2)[C@H]1[C@@]1(C)O[C@@H]1CC=C(C)C [TNP-470], the “development of obesity in mice” value [4] is given as “prevent diet-induced and genetic obesity” and the “vascularity in the adipose tissue” value [4] is given as “reduced vascularity in the adipose tissue”.

For N.N.[Cl][Pt][Cl] [cisplatin, reference compound], the “course of tumors under cisplatin treatment” value [5] was “developed resistance to cisplatin treatment after 20 days and began growing again”.

For LEKTCDWLPKPNMSASCKEI, the “stimulating Tsp-1 expression in vitro and in vivo” value (Tsp-1 expression) is listed as “capable of stimulating Tsp-1 expression in vitro and in vivo”.

For PEG2000-CDWLPK, the “stimulating the expression of Tsp-1 in the lung and liver” value [6] was “as, or more, effective than PC3 conditioned media”.

In the case of “PEG2000-EKTCDWLPKPNMSASCKE (cysteine pairing not given here)”, the “stimulating the expression of Tsp-1 in the lung and liver” value [6] is reported as “as, or more, effective than PC3 conditioned media”.
